US20090143471A1, “Process for the Atomization of Ioxilan” (GUERBET, priority 2006, published 2009)

Experiment: immediate solubility in water
Assay type: physicochemical
Settings: ambient or moderate temperature (typically from 20 to 40° C.)
Procedure: Another disadvantage of the prior process by crystallization was that, in order to obtain an appropriate concentration of active principle in the contrast agent, the dissolution of the crystalline compound B1 (solid crystalline ioxilan, denoted B1; compound B of FIG. 1 is compound B1) required heating at high temperature (80° C.). This is because the immediate solubility of B1 in water at ambient or moderate temperature (typically from 20 to 40° C.) was of the order of 50 mg of iodine/ml.
The atomized compound B2 is soluble at ambient or moderate temperature. It is possible, starting from the compound B2, to obtain an appropriate pharmaceutical solution without needing to heat at high temperature. The immediate solubility of B2 in water at ambient or moderate temperature, of the order of at least 500 mg of iodine/ml and typically of approximately 500 mg of iodine/ml, makes it possible to obtain an injected contrast agent having a concentration of 350 to 450 mg of iodine/ml, for example 350, 380 or 400 mg of iodine/ml.

CC(=O)N(CC(O)CO)c1c(I)c(C(=O)NCCO)c(I)c(C(=O)NCC(O)CO)c1I (stereo not shown) [B1, 5-[N-(2,3-dihydroxypropyl)acetamido]-2,4,6-triiodo-N-(2,3-dihydroxypropyl)-N′-(2-hydroxyethyl)isophthalamide]
immediate solubility in water: ~50 mg of iodine/ml
